Experimental data reported in publication PMC10584170, “Machine learning-based phenotypic imaging to characterise the targetable biology of Plasmodium falciparum male gametocytes for the development of transmission-blocking antimalarials” (PLOS Pathogens, 2023).
Like-named read-outs stand apart in the source and are kept apart here.

Tests used:
[1] = tested on: P. falciparum female gametocytes; assay: P. falciparum Dual Gamete Formation Assay (PfDGFA), female readout (Pfs25-positive female gametes); assay type: cell-based, Plasmodium falciparum NF54
Method: (§1) P. falciparum NF54 (originally isolated from an imported malaria case in the Netherlands in the 1980s; BEI Resources, cat. No. MRA-1000) strain asexual parasites were maintained between 0.3–5% parasitaemia by regular passage in complete culture medium (RPMI supplemented with 25 mM HEPES, 50 μg ml^−1 hypoxanthine, 4.8 g l^−1 NaHCO3, 2mM L-glutamine, 5% pooled type AB serum, 0.5% Albumax II (Gibco)) at 4% haematocrit in washed whole blood (National Blood and Transfusion Service or Centro de Transfusiones de la Comunidad de Madrid CTCM) under a 1% O2/3% CO2/96% N2 environment. Gametocytes were induced by seeding culture flasks at 2% parasitaemia/4% haematocrit and subjecting them to daily medium changes for 14 days whilst maintaining a temperature of 37°C at all times. On Day 14, the maturity of gametocytes was assessed by quantifying male gametogenesis (exflagellation). A 20 μl sample of gametocyte culture was mixed with equal volume of ookinete medium (complete culture medium supplemented with 0.1 μM xanthurenic acid) at room temperature and transferred to a haemocytometer. After 20 min at room temperature, exflagellation was accurately quantified as described in Delves et al. 2016 [17].
(§2) The Pf DGFA was performed as described in Delves et al. 2016 [17]. […] Plates were then incubated for 24 h at 37°C in a humidified box under a 1% O2/3% CO2/96% N2 gas mix. Gametogenesis was triggered by addition of 10 μl per well of ookinete medium + 0.27 μg ml^-1 Cy3-labelled anti-Pfs25 antibody. Plates were incubated on a metal block at 4°C for 4 min to ensure even cooling, then 28°C for a further 4 min. Exflagellation was recorded by capturing 10 frames over 1 s under brightfield illumination using a x4 objective with a 1.5x zoom (effectively x6) attached to an automated Nikon Ti fluorescence microscope. After recording exflagellation, plates were incubated for a further 24 h in the dark at 28°C to ensure maximal expression of Pfs25 by female gametes. The plates were then returned to the microscope and female gametes imaged at x6 using fluorescence microscopy.
(§3) Exflagellation centres and female gametes were quantified using custom image analysis pipelines developed within ICY Bioimage Analysis (https://icy.bioimageanalysis.org/).

[2] = tested on: P. falciparum male gametocytes; assay: P. falciparum Dual Gamete Formation Assay (PfDGFA), male readout (exflagellation); assay type: cell-based, Plasmodium falciparum NF54; conditions: for Activity: hit = >50% inhibition in male or female readout in at least 3 replicates, 0 = no class assigned
Method: as §1, §2, §3

[3] = PfDGFA at 2µM, 24h preincubation with gametocytes prior to induction of gametogenesis, replicate R1
[4] = PfDGFA at 2µM, 24h preincubation with gametocytes prior to induction of gametogenesis, replicate R3
[5] = PfDGFA at 2µM, 24h preincubation with gametocytes prior to induction of gametogenesis, replicate R4
[6] = PfDGFA at 2µM, 24h preincubation, average of replicates
[7] = 2µM, 24h preincubation with gametocytes prior to induction of gametogenesis, average of replicates
[8] = 2µM, 24h preincubation with gametocytes prior to induction of gametogenesis, replicate R1
[9] = 2µM, 24h preincubation with gametocytes prior to induction of gametogenesis, replicate R3
[10] = 2µM, 24h preincubation with gametocytes prior to induction of gametogenesis, replicate R4
[11] = 2µM, 24h preincubation, hits selected on >50% inhibition in the female readout across replicates
[12] = 2µM, 24h preincubation, hits selected on >50% inhibition in the male readout across replicates
[13] = PfDGFA at 2µM, 24h preincubation
[14] = 2µM, 24h preincubation with gametocytes, average of replicates
[15] = 2µM, 24h preincubation with gametocytes, replicate R1
[16] = 2µM, 24h preincubation with gametocytes, replicate R3
[17] = 2µM, 24h preincubation with gametocytes, replicate R4
[18] = 2µM, 24h preincubation, number of replicates with >50% inhibition in the female readout
[19] = 2µM, 24h preincubation, number of replicates with >50% inhibition in the male readout
[20] = PfDGFA at 2µM, 24h preincubation with gametocytes, average of replicates
[21] = PfDGFA at 2µM, 24h preincubation with gametocytes, replicate R1
[22] = PfDGFA at 2µM, 24h preincubation with gametocytes, replicate R4

Row | Structure (SMILES) | Average inhibition female (%) [1, 7] [%] | % inhibition female (individual replicates) R1 [1, 8] [%] | % inhibition female (individual replicates) R3 [1, 9] [%] | % inhibition female (individual replicates) R4 [1, 10] [%] | HitlevelF [1, 11] | Average inhibition male (%) [2, 7] [%] | % inhibition male (individual replicates) R1 [2, 8] [%] | % inhibition male (individual replicates) R3 [2, 9] [%] | % inhibition male (individual replicates) R4 [2, 10] [%] | HitlevelM [2, 12] | Activity [2, 13] | also measured
1 | c1ccc2sc(Sc3ncnc4sccc34)nc2c1 [TCMDC-125539] |  |  |  |  |  |  |  |  |  |  |  | Selectivity ratio F ([1]; HepG2 Tox50 versus female IC50): 340.93; inhibition at 2 µM ([1]; Plasmodium falciparum, 2µM, 24h preincubation with gametocytes, average of replicates, read-out: Average inhibition female (%)): 60%; inhibition at 2 µM ([1]; Plasmodium falciparum, 2µM, 24h preincubation with gametocytes, replicate R1, read-out: % inhibition female (individual replicates) R1): 39.3%; inhibition at 2 µM ([1]; Plasmodium falciparum, 2µM, 24h preincubation with gametocytes, replicate R2, read-out: % inhibition female (individual replicates) R2): 92.2%; inhibition at 2 µM ([1]; Plasmodium falciparum, 2µM, 24h preincubation with gametocytes, replicate R3, read-out: % inhibition female (individual replicates) R3): 35.1%; inhibition at 2 µM ([1]; Plasmodium falciparum, 2µM, 24h preincubation with gametocytes, replicate R4, read-out: % inhibition female (individual replicates) R4): 73.5%; IC50 ([1]; Plasmodium falciparum, PfDGFA, 24 h incubation with gametocytes before induction, female gamete readout, read-out: Female IC50): 290 nM; Selectivity Ratio M ([2]; HepG2 Tox50 versus male IC50): 337.73; inhibition at 2 µM ([2]; Plasmodium falciparum, 2µM, 24h preincubation with gametocytes, average of replicates, read-out: Average inhibition male (%)): 97.1%; inhibition at 2 µM ([2]; Plasmodium falciparum, 2µM, 24h preincubation with gametocytes, replicate R1, read-out: % inhibition male (individual replicates) R1): 100%; inhibition at 2 µM ([2]; Plasmodium falciparum, 2µM, 24h preincubation with gametocytes, replicate R2, read-out: % inhibition male (individual replicates) R2): 97.4%; inhibition at 2 µM ([2]; Plasmodium falciparum, 2µM, 24h preincubation with gametocytes, replicate R3, read-out: % inhibition male (individual replicates) R3): 95.7%; inhibition at 2 µM ([2]; Plasmodium falciparum, 2µM, 24h preincubation with gametocytes, replicate R4, read-out: % inhibition male (individual replicates) R4): 94.9%; IC50 ([2]; Plasmodium falciparum, PfDGFA, 24 h incubation with gametocytes before induction, exflagellation readout, read-out: Male IC50): 300 nM
2 | CN1CCN(c2cc(-c3cccnc3)nc(-c3ccncc3)n2)CC1 [TCMDC-125593] |  |  |  |  |  |  |  |  |  |  |  | % inhibition female (individual replicates) R1 [1, 3]: -2.3%; % inhibition female (individual replicates) R3 [1, 4]: -6.8%; % inhibition female (individual replicates) R4 [1, 5]: 22.4%; Average inhibition female (%) [1, 6]: 0.0475%; % inhibition male (individual replicates) R1 [2, 3]: -6.4%; % inhibition male (individual replicates) R3 [2, 4]: -15.1%; % inhibition male (individual replicates) R4 [2, 5]: 5.5%; Average inhibition male (%) [2, 6]: -4.3%
3 | Br.CCCCCCCCn1c2c(c(=N)c3c1CCC3)CCCC2 [TCMDC-125653] | 10.3 | 8.6 | 3.3 | 15.0 | 0 | 42.3 | 42.8 | 52.3 | 40.6 | 1 | 0 | 
4 | COc1ccc2nc3cc(Cl)ccc3c(N)c2c1.Cl [TCMDC-125835] |  |  |  |  |  |  |  |  |  |  |  | Average inhibition female (%) [1, 14]: 50.6%; % inhibition female (individual replicates) R1 [1, 15]: 39.5%; % inhibition female (individual replicates) R3 [1, 16]: 15.3%; % inhibition female (individual replicates) R4 [1, 17]: 62.7%; Average inhibition male (%) [2, 14]: 96.0%; % inhibition male (individual replicates) R1 [2, 15]: 94.1%; % inhibition male (individual replicates) R3 [2, 16]: 90.9%; % inhibition male (individual replicates) R4 [2, 17]: 101.6%
5 | Clc1ccc(Cc2nc3ccccc3[nH]2)cc1Cl [TCMDC-125878] |  |  |  |  |  |  |  |  |  |  |  | % inhibition female (individual replicates) R1 [1, 3]: 8.9%; % inhibition female (individual replicates) R3 [1, 4]: -15.0%; % inhibition female (individual replicates) R4 [1, 5]: -0.8%; Average inhibition female (%) [1, 6]: 0.655%; % inhibition male (individual replicates) R1 [2, 3]: 0.8%; % inhibition male (individual replicates) R3 [2, 4]: -14.5%; % inhibition male (individual replicates) R4 [2, 5]: 2.2%; Average inhibition male (%) [2, 6]: -4.5%
6 | COc1ccc(CCNCCCCCCNCCc2ccc(-c3ccccc3)cc2)cc1OC.Cl [TCMDC-131267] |  |  |  |  |  |  |  |  |  |  |  | Average inhibition female (%) [1, 14]: 51.9%; % inhibition female (individual replicates) R1 [1, 15]: 49.5%; % inhibition female (individual replicates) R3 [1, 16]: 51.6%; % inhibition female (individual replicates) R4 [1, 17]: 50.9%; Average inhibition male (%) [2, 14]: 91.2%; % inhibition male (individual replicates) R1 [2, 15]: 90.5%; % inhibition male (individual replicates) R4 [2, 17]: 88.4%
7 | COc1ccc(CCNCCCCCNCCc2ccc(Cl)cc2)cc1OC.Cl [TCMDC-131269] | 7.8 | 17.8 | -21.2 | 18.8 | 0 | 50.1 | 46.0 | 29.0 | 62.2 | 2 | 0 | 
8 | Br.Oc1ccc(CCNCCCCCCNCCc2ccc(Cl)c3ccccc23)cc1O [TCMDC-131271] | 16.5 | 16.8 | 9.0 | 24.5 |  | 50.9 | 51.3 | 62.1 | 62.3 |  |  | HitlevelF [1, 18]: 0; HitlevelM [2, 19]: 3
9 | COc1ccc(CCNCCCCCCNCCc2ccc(Cl)c(Cl)c2)cc1OC.Cl [TCMDC-131275] | 10.6 | 26.6 | -14.3 | 22.3 | 0 | 39.4 | 42.2 | 31.4 | 46.9 | 0 | 0 | 
10 | Br.CC(C)(Cc1ccc(Cl)cc1)NCCCCCCNCCc1ccc(O)c(O)c1 [TCMDC-131277] | 25.5 | 31.9 | 42.8 | 1.4 |  | 21.3 | 17.2 | 18.9 | 31.6 |  |  | HitlevelF [1, 18]: 0; HitlevelM [2, 19]: 0
11 | COc1ccc(CCNCCCCCCNCCCc2ccc(Cl)cc2)cc1OC.Cl [TCMDC-131280] | 17.7 | 16.6 | 13.1 | 24.0 | 0 | 28.8 | 30.2 | 15.3 | 32.2 | 0 | 0 | 
12 | Br.CCCCc1ccc(CCNCCCCCCNCCc2ccc(O)c(O)c2)cc1 [TCMDC-131281] |  |  |  |  |  |  |  |  |  |  |  | Average inhibition female (%) [1, 20]: 39.8%; % inhibition female (individual replicates) R1 [1, 21]: 30.3%; % inhibition female (individual replicates) R3 ([1]; PfDGFA at 2µM, 24h preincubation with gametocytes, replicate R3): 35.5%; % inhibition female (individual replicates) R4 [1, 22]: 31.1%; HitlevelF ([1]; number of replicates with >50% inhibition in the female readout, 2µM): 1; Average inhibition male (%) [2, 20]: 80.5%; % inhibition male (individual replicates) R1 [2, 21]: 68.8%; % inhibition male (individual replicates) R4 [2, 22]: 77.5%; HitlevelM ([2]; number of replicates with >50% inhibition in the male readout, 2µM): 3
13 | COc1cccc(CCNCCCCCCNCCc2ccc(Cl)cc2)c1.Cl [TCMDC-131284] | 15.8 | 18.4 | 6.6 | 6.5 | 0 | 40.5 | 42.7 | 17.7 | 36.9 | 1 | 0 | 
